The source of these data is PubChem BioAssay AID1259418 (Broad Institute, 2018).

In general, AC50 refers to the midpoint of the concentration-response curve, whichever way the signal moves.

Several values for one entry are separate records, joined by “and”; a condition that tells them apart may be missing. Identical values can stand only once. Records with an inconclusive call do not appear. Activity calls are given as the source filed them.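 How the source made its calls: active means fitted half-maximal concentration of signal decrease at or below twice the sample's top tested concentration; inconclusive means flat curve between -70 and -30 percent, or poor fit; inactive means flat within 30 percent, signal rise, or potency above limit.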

The target of the test is T. gondii ME49Luc in IFN-y HeLa, luciferase, 72 h. In words: inhibitors of Toxoplasma growth in IFN-γ-primed HeLa – cell-based, ME49Luc, luciferase, 72 h, dose response (AID 1259418).
With `CN(C)c1nc(N2CCCC2)nc2c1CCN(Cc1ccoc1)CC2`, the half-maximal activity concentration (AC50) is 16 µM. Then `CC(C)c1ccc(S(=O)(=O)N2CCC3(CC2)NCCN=C3NCc2ccc3c(c2)OCO3)cc1`, with 33.6 µM; and `N#Cc1ccc(-c2ccc([C@@H]3[C@@H](CO)N4C(=O)CNC[C@H]34)cc2)cc1`, with 11.8 µM; and `O=C(CC1Nc2c3ccccc3nc(=S)n2C1=O)NCc1ccccc1Cl` (stereo not drawn), with 28.7 µM. Take `C[C@H]1CN([C@@H](C)CO)C(=O)c2cccc(NS(=O)(=O)c3ccc(F)cc3)c2O[C@H]1CN(C)Cc1ccc(Cl)c(Cl)c1`: the AC50 is 19.2 µM and 11.7 µM.

In the case of `O=C(c1cnccn1)N1CC(=O)N2[C@H](CO)[C@H](c3ccc(/C=C/c4ccccc4)cc3)[C@@H]2C1`, the AC50 is 24.8 µM. Then `Cc1ccc(OCC(=O)Nc2ccc(-c3nc(-c4ccccc4)co3)cc2)cc1`, with > 39 µM (inactive); and `Fc1ccccc1CSc1nc(Nc2ccc3c(c2)OCO3)c2ccccc2n1`, with 33.2 µM. For `O=C(Cc1ccccn1)N1CC(=O)N2[C@@H](CO)[C@@H](c3ccc(C#CCC4CCCC4)cc3)[C@@H]2C1`, the AC50 was 13.2 µM. Then `COc1ccccc1C#Cc1ccc([C@@H]2[C@@H](CO)N3CCCCN(C(=O)C4CCC4)C[C@H]23)cc1`, with 28.8 µM and 14.6 µM; and `COCC(=O)N1[C@@H](C#N)[C@H](c2ccc(C#CCC3CCCC3)cc2)[C@@H]1CO`, with 38.3 µM. For `O=C(c1cccn2c(-c3ccc(F)cc3)nnc12)N1CCC(O)(c2ccc(Cl)cc2)CC1`, the concentration at half-maximal activity (AC50) was 25.4 µM. Then `O=C(c1cccc(F)c1)N1CCCCN2[C@H](C1)[C@@H](c1ccc(C#CC3(O)CCCC3)cc1)[C@@H]2CO`, with 11 µM and 29.4 µM; and `CN1c2ccc(C3=CCCCC3)cc2[C@@H]2[C@@H](CCN2C(=O)c2ccc3c(c2)OCO3)[C@@H]1CO`, with 19.3 µM; and `COc1cccc(-c2ccc([C@H]3[C@H]4CN(C(=O)Cc5ccncc5)CCCCN4[C@H]3CO)cc2)c1`, with > 39 µM (inactive). On to `CC1CCCCN1CCNc1nc(-c2ccc(Cl)cc2)nc2ccccc12` (stereo not drawn), for which the half-maximal activity concentration (AC50) was 10.9 µM and 12.7 µM. Then `CCC(=O)N1CC[C@@H]2[C@H]1c1cc(-c3ccc(C#N)cc3)ccc1N(C)[C@H]2CO`, with > 42 µM (inactive); and `N#Cc1cccc(-c2ccc3c(c2)[C@@H]2[C@@H](CCN2S(=O)(=O)c2ccc(F)cc2)[C@@H](CO)N3)c1`, with 15.7 µM.

Regarding `CCc1nc(OCC(=O)NCc2ccc(SC)cc2)c2ccccc2n1`, the AC50 was > 39 µM (inactive). The value for `N#Cc1cccc(-c2ccc(C3[C@@H]4CN(C(=O)c5ccc6c(c5)OCO6)C[C@H]3N4)cc2)c1` (stereo partly drawn) was 14.5 µM and 9.62 µM; that for `Clc1cccc(CN2CCC3(COCc4cnc(-c5ccccc5)nc43)C2)c1` (stereo not drawn) was 18.2 µM and 10.4 µM.

Consider `COc1cccc(S(=O)(=O)N2CCCCN3[C@H](CO)[C@H](c4ccc(C#CCC(C)C)cc4)[C@H]3C2)c1`, for which the half-maximal activity concentration (AC50) is 16.5 µM and 1.89 µM and 10.4 µM. As for `CCN1CCCC1CNC(=O)C1CCN(Cc2cc3ccccc3n2Cc2ccccc2Cl)CC1` (stereo not drawn), the AC50 is 28.7 µM.

For the molecule `Cc1ccc(CNC(=O)COc2nc(C)nc3ccccc23)cc1`, the AC50 is > 39 µM (inactive). Then `O=C(C[C@H]1CC[C@H]2[C@@H](COC[C@@H](O)CN2Cc2ccc(Oc3ccccc3)cc2)O1)N1CCN(c2ccccc2)CC1`, with 15.2 µM and 32.3 µM; and `Cc1ccc(C)c(S(=O)(=O)N2CCC3(CC2)NCCN=C3NCc2ccccc2F)c1`, with 28.5 µM. `O=C(NCCc1csc(-c2ccccc2)n1)[C@H]1CCCN1S(=O)(=O)c1ccc(Cl)s1`: the AC50 was 12.9 µM. Then `COc1ccc(-c2nc(NCC3CCN(CCc4ccc(F)cc4)CC3)c3ccccc3n2)cc1`, with 12.2 µM; and `COc1ccc(-c2nc(Nc3ccc(CN4CCC(C)CC4)cc3)c3ccccc3n2)cc1`, with 9.71 µM and 14.6 µM; and `C/C=C/c1ccc([C@H]2[C@@H](CO)N3CCCCN(S(=O)(=O)c4ccc(OC)cc4)C[C@H]23)cc1`, with 15.7 µM. Then `O=C(CCCCCCNC(=O)c1cnc(N(c2ccccc2)c2ccccc2)nc1)NO`, with 14.8 µM. The value for `CCc1c(C)sc2c1CCN(Cc1nc(-c3cc(C)ccc3C)oc1C)C2c1ccccc1` (stereo not drawn) was 9.45 µM; that for `O=C(CCC1N=C2c3ccccc3N=C(SCc3ccc(F)cc3)N2C1=O)NCc1ccc(F)cc1` (stereo not drawn) was > 39 µM (inactive); that for `Cc1cccc(N2CCN(C(=O)CC3Nc4c5ccccc5nc(=S)n4C3=O)CC2)c1C` (stereo not drawn) was 26.9 µM. Regarding `O=C(c1ccc2c(c1)OCO2)N1C[C@@H]2N[C@H](C1)C2c1ccc(/C=C/c2ccccc2)cc1` (stereo partly drawn), the AC50 was 8.94 µM and 21.9 µM. `CCc1nc(OCC(=O)Nc2ccccc2C(=O)OC)c2ccccc2n1`: the AC50 is > 39 µM (inactive). Then `CCOC(=O)Cn1c(C)c(CN2CCCC2c2cc(C(C)C)no2)c2ccccc21` (stereo not drawn), with 15.5 µM. The value for `CCSc1ccc(-c2sc(-c3ccc(OC)cc3)nc2C)nn1` was > 39 µM (inactive); that for `Cc1ccc(-c2coc(-c3ccc(NS(=O)(=O)c4ccc(Br)cc4)cc3)n2)c(C)c1` was 27.9 µM; that for `CCCCc1ccc(Nc2ncnc3c2cnn3-c2ccc(C)cc2C)cc1` was 8.05 µM.

Turning to `COc1cccc(N(Cc2nc(-c3ccc(C)cc3)oc2C)S(=O)(=O)c2ccc(C)cc2)c1`, the half-maximal activity concentration (AC50) is 7.83 µM.

Turning to `N#C[C@H]1[C@@H](c2ccc(-c3cccnc3)cc2)[C@@H](CO)N1C(=O)Nc1ccc(F)cc1`, the AC50 is 12.7 µM.

As to `CN(C)C(=O)c1cccc(-c2ccc3c(c2)[C@@H]2[C@@H](CCN2C(=O)Cc2ccccc2)[C@@H](CO)N3)c1`, the half-maximal activity concentration (AC50) was 17.6 µM. The value for `Cc1cc(C)cc(S(=O)(=O)N2CCC3(CC2)NCCN=C3NCc2ccc(F)cc2)c1` was 20.5 µM; that for `COCCC(=O)C1Cc2nc(-c3ccccc3)sc2N1CC1CC1` (stereo not drawn) was 27.2 µM and 15.5 µM. Take `COc1ccc(-c2nc(NC3CCN(Cc4ccccc4)CC3)c3ccccc3n2)cc1`: the AC50 was 26.3 µM. The value for `COc1ccc(OC)c(S(=O)(=O)N2CCc3c([nH]c4ccccc34)C2c2cc(F)ccc2F)c1` (stereo not drawn) was > 39 µM (inactive). The value for `COc1cc(NC(=O)Nc2ccc(-c3nc(-c4ccc(C)cc4C)co3)cc2)cc(OC)c1` was 25.7 µM. Then `Cc1ccc(N2CC(NC(=O)C(=O)c3c[nH]c4ccccc34)CC2=O)cc1` (stereo not drawn), with > 39 µM (inactive); and `CCOc1ccccc1N(Cc1nc(-c2ccc(OC)cc2)oc1C)S(=O)(=O)c1ccccc1`, with 6.35 µM; and `CCc1cc(C(=O)Nc2ccc(C)cc2-c2cc(C)[nH]n2)c2c(C)noc2n1`, with 11.8 µM.

Turning to `COc1ccc(CNC(=O)CC2N=C3c4ccccc4N=C(SCc4ccc(C)cc4)N3C2=O)cc1` (stereo not drawn), the AC50 is 19.4 µM. The value for `Cc1ccc(-c2coc(-c3ccc(NC(=O)Nc4ccc(Br)cc4)cc3)n2)cc1` was > 39 µM (inactive). Then `CCc1ccc(C(=O)Nc2ccc3c(c2)CCC(=O)N3C)cc1`, with 7.06 µM; and `CCc1nc(OCC(=O)NCc2ccccc2)c2ccccc2n1`, with 21.9 µM. Take `CC(C)n1cnc2c(NCC3CC3)nc(C3CCN(C(=O)c4cccc(F)c4F)CC3)cc21`: the AC50 was 19.8 µM. Then `COc1ccc(CNC2=NCCNC23CCN(S(=O)(=O)c2ccc(C)c(C)c2)CC3)cc1`, with > 39 µM (inactive); and `Clc1ccc(CNc2nc(SCc3cccc(Cl)c3)nc3ccccc23)cc1`, with 5.24 µM.

Take `COCC(=O)N1CCC2(CC1)CN(Cc1nccs1)CCO2`: the half-maximal activity concentration (AC50) was 17.9 µM.

In the case of `Cc1cccc(-c2ccc([C@@H]3[C@H](CO)N4CCCCN(S(=O)(=O)c5ccccc5F)C[C@@H]34)cc2)c1`, the AC50 was 16.6 µM and 10.7 µM. The value for `CCOc1ccccc1-c1nc(CN(c2ccccc2OC)S(=O)(=O)c2ccccc2)c(C)o1` was 7.68 µM; that for `Cc1csc(-c2cc(S(=O)(=O)NCCCN3CCC(C)CC3)c(C)s2)n1` was > 39 µM (inactive). `Cc1oc(-c2cccc(Cl)c2)nc1CN1CCN(C(=O)Nc2ccc(F)cc2)CC1`: the half-maximal activity concentration (AC50) was 24.1 µM. The value for `CCCC#Cc1ccc([C@@H]2[C@H]3CN(C(=O)Nc4cccc(F)c4)CC(=O)N3[C@H]2CO)cc1` was 17.4 µM; that for `Cc1ccc(CN2CC3CN(Cc4cccc(F)c4)CC3C2)s1` (stereo not drawn) was 9.23 µM. On to `CCC(=O)N1CCC2(CC1)Nc1ccc(Cl)cc1-n1cccc12`, for which the AC50 is 31 µM. Then `CC(C)CC#Cc1ccc([C@@H]2[C@H](CO)N3C(=O)CN(C(=O)Nc4cc(F)ccc4F)C[C@@H]23)cc1`, with 12.6 µM and 4.61 µM. The value for `Cc1cc(C2CCCN2C(=O)Cn2nc(C(F)(F)F)c3c2CCCC3)no1` (stereo not drawn) was 34.3 µM. For `N#C[C@H]1[C@H](c2ccc(C#Cc3ccccc3F)cc2)[C@@H](CO)N1C(=O)c1cccnc1`, the AC50 was > 39 µM (inactive). Then `CCCNC(=O)N1CC(=O)N2[C@@H](CO)[C@@H](c3ccc(C#Cc4cccc(OC)c4)cc3)[C@@H]2C1`, with 19.2 µM.

`CCc1nc(OCC(=O)Nc2ccc(F)c(Cl)c2)c2ccccc2n1`: the AC50 is > 39 µM (inactive). Then `CC(C)(C)NC(=O)[C@@H]1CC2CCCCC2CN1C[C@@H](O)[C@H](Cc1ccccc1)NC(=O)[C@H](CC(N)=O)NC(=O)c1ccc2ccccc2n1` (stereo partly drawn), with 17.8 µM. Then `CN(C)CCCNC(=O)c1cc(-c2cnc(-c3ccccc3)nc2)cn1C`, with 30.1 µM; and `COc1cccc(NC(=O)Nc2ccc(-c3nc(-c4ccc(C)cc4C)co3)cc2)c1`, with > 39 µM (inactive); and `COc1cccc(C#Cc2ccc([C@@H]3[C@@H](C#N)N[C@@H]3CO)cc2)c1`, with 38.4 µM.

Turning to `COc1ccc2c(c1)NC1(CCN(C(=O)c3ccc(F)cc3)CC1)c1cccn1-2`, the AC50 is > 20 µM (inactive). The value for `Fc1ccc(Nc2nc(SCc3ccc(Cl)cc3)nc3ccccc23)cc1F` was 17.3 µM; that for `COc1cccc(-c2ccc3c(c2)[C@H]2[C@H](CCN2S(=O)(=O)c2ccccc2F)[C@H](CO)N3)c1` was 19.3 µM. The value for `Fc1cccc(CN2C[C@@H]3N[C@H](C2)C3c2ccc(/C=C/c3ccccc3)cc2)c1` (stereo partly drawn) was 12.1 µM and 17.5 µM. The value for `O=C1CCc2cc(S(=O)(=O)NCCc3ccccc3)cc3c2N1CCC3` was 14 µM. Consider `N#Cc1ccc(-c2ccc(C3[C@@H]4CN(C(=O)C5CCCCC5)C[C@H]3N4)cc2)cc1` (stereo partly drawn), for which the AC50 was 17.8 µM and 28.4 µM and 27.6 µM. For the molecule `COc1cccc(N(Cc2nc(-c3cccc(C)c3)oc2C)S(=O)(=O)c2ccccc2)c1`, the AC50 was 8.5 µM. Consider `Cc1ccccc1Cn1c(CN2CCC(C(=O)N3CCCC3)CC2)cc2ccccc21`, for which the AC50 is > 39 µM (inactive).
